From EP2251010A1, “Use of thiabendazole and derivatives thereof for the therapy of neurological conditions” (Sygnis Bioscience GmbH & Co. KG, priority 2009, dated 2010)

Legend:
neural stem cells = experiment: In vitro differentiation assay on adult neuronal stem cells (beta-III-tubulin promoter dual luciferase reporter); assay type: cell-based, Wistar rats; conditions: final concentrations of 1 µM and 10 µM, Fig. 4
From the text: The neuroregenerative effect of the compounds according to the present invention can be assayed in vitro by measuring their stimulation of the differentiation of neuronal stem cells. Therefore, adult neuronal stem cells have to be isolated and subsequently cultivated in a suitable culture medium. After several passages in vitro the stem cells have to be co-transfected with a DNA construct coding for two discriminable reporter proteins one of them under the control of a constitutive promoter and the other under the control of a beta-III-tubulin promoter. The beta-III-tubulin promoter is induced during the process of neuronal stem cell differentiation; therefore the reporter protein under the control of this promoter serves as a marker for the stem cell differentiation in such an in vitro dual reporter assay (Schneider et al., J Clin Investigation 2005; 115:2083-2098). The person skilled in the art knows several suitable constitutive promoters such as the SV40-promoter, the TK-promoter, or the CMV-promoter. As discriminable reporter proteins for such a dual reporter assay one can use discriminable luciferases such as firefly luciferase and Renilla luciferase. The transfected cells have to be incubated with the test compound and with positive and negative controls for normalization and background correction. As a positive control compound one can use retinoic acid (Guan et al., Cell Tissue Res. 2001; 305:171-176; Jacobs et al., Proc. Natl. Acad. Sci. USA 2006; 103:3902-3907), a suitable negative control is the sham treatment of the cells. The neroregenerative activity of the test compound is determined as the ratio of the signal of the beta-III-tubulin promoter controlled reporter versus the signal of the constitutively expressed reporter and is expressed as fold from the control. This assay is suitable to assess the neuroregenerative activity of thiabendazole and derivatives thereof, but also can be used to screen for other potential neuroregenerative compounds. Preferably, such a screening can be used to test compounds which are already known to be suitable as a medicament in terms of its toxicology, bioavailability, solubility, stability etc.
In vitro differentiation assay on adult neuronal stem cells with thiabendazole Neural stem cells were isolated from the subventricular zone of 4 week-old male Wistar rats as described (Maurer et al, Proteome Sci. 2003; 1:4). Cells were cultivated in Neurobasal medium (Invitrogen) supplemented with B27 (Invitrogen), 2mM L-glutamine, 100units/ml penicillin, 100units/ml streptomycin, 20ng/ml […] (EGF), 20ng/ml fibroblast growth factor-2 (FGF-2), and 2µg/ml heparin. Once a week the neural stem cells were passaged and experiments were performed after 4 weeks in vitro. For DNA transfection, the cells were dissociated and plated on poly-L-ornithin/laminin-coated 96-well plates at a density of 50.000 cells/well. Cotransfection with the pGL3-p-βIII-tubulin vector (100ng/well) and the pRL SV40 vector (100ng/well) was carried out according to the FuGene6 Transfection protocol (Roche). The pRL SV40 vector (Promega) served as an internal control vector.
To amplify the class III β-tubulin gene promoter (fragment -450 - +54), rat genomic DNA was used as a template for PCR (Dennis et al., Gene 2002;294:269-277). The amplified fragment was inserted into the Mlu I/Xho I site of the pGL3-Basic firefly luciferase reporter vector (Promega) to generate the pGL3-p-βIII-tubulin experimental vector.
After overnight incubation, the plate was decanted and given in 8-fold replicates fresh medium containing thiabendazole (Sigma) or vehicle. As a positive control for in vitro differentiation, stem cells were treated by adding 1 µM retinoic acid (Sigma) to the medium missing the mitogens.
After 48hrs, the cells were harvested to prepare the cellular extracts for luciferase assay following the directions of the manufacturer (Promega). […]

primary cortical neurons = experiment: In vitro anti-apoptosis assay (Caspase-Glo 3/7) on primary cortical neurons with staurosporine; assay type: cell-based, Wistar rat; conditions: sham 11 %
From the text: (§1) Neuroprotection is attainable via the inhibition of apoptosis of affected neurons. The anti-apoptotic effect of thiabendazole and its derivatives can be assayed in vitro by measuring the caspase-3 and caspase-7 activities. These members of the cysteine aspartic acid-specific protease (caspase) family play key effector roles in apoptosis in mammalian cells. Cortical neurons have to be isolated and subsequently cultivated in a suitable culture medium. […] Parallel approaches with staurosporine alone and sham treatment of the cells serve as […]. The assay allows evaluating whether the test compound can compensate either completely or partially for the apoptotic effect of staurosporine.
(§2) The neuroprotective effect of compounds can be assayed in vitro by measuring caspase-3 and caspase-7 activities. These members of the cysteine aspartic acid-specific protease (caspase) family play a key effector role in apoptosis in mammalian cells.
These cells were isolated from twelve to fourteen cortices dissected from Wistar rat embryos on E18. The tissue was dissociated using 0,25 mg/ml trypsin, 0,1 mg/ml EDTA (Sigma), 100 µg/ml DNase (Roche Diagnostics Corp.) in HBSS. The digestion was stopped using 3 parts MEM-medium containing 10 % fetal calf serum, 0,45 % D-(+)glucose, 1 mM sodium-pyruvate and 0,25 µM glutamate. The cells were singularized by 10 strokes with a burnished Pasteur-pipette. After centrifugation, the cell pellet was dissolved in 10 ml medium and plated at a density of 30000 cells per well on a 96-well plate coated with poly-L-lysine for caspase-assays. […] Incubation with staurosporine (SP; 0,5 µM) alone served as positive control and incubation with vehicle (sham) served as negative control.

SH-SY5Y cells [1] = experiment: In vitro anti-apoptosis assay (Caspase-Glo 3/7) on SH-SY5Y cells with staurosporine; assay type: cell-based, human; conditions: SH-SY5Y cells, compound 1 µM plus staurosporine 0,5 µM; sham 26 %, Fig. 5
SH-SY5Y neuronal cells = experiment: In vitro viability assay (constitutive Renilla luciferase reporter); assay type: cell-based, human; conditions: final concentration of 1 µM and of 10 µM, Fig. 7
Method: The viability assay allows for further assessment of test compounds regarding their effect on cells such as neurons. Therefore, a stably transfected cell line (e.g. SH-SY5Y cells) with a reporter construct (e.g. a luciferase construct) has to be incubated with the test compound and in parallel with positive and negative controls (e.g. staurosporine and sham, respectively). Subsequently, the signal generated by the reporter construct serves as a readout for the viability of the cells in the presence of the test compound. The assay enables the evaluation of potential neurotoxic effects of the test compound itself.
The effect of a compound on the viability of neuronal cells can be assayed in vitro by measuring the survival of neuronal cells transfected with a reporter construct under a constitutive promoter. SH-SY5Y neuronal cells stably transfected with a Renilla luciferase construct under the SV40 promoter were seeded in 96-well plates at a density of 2,5 x 10^4 cells per well. Following overnight incubation the cells were stimulated with medium containing thiabendazole or vehicle. Staurosporine (0,5 µM) served as positive control. The Renilla luciferase activity was measured 5 h later using a luminometer (Berthold Technologies, Mithras LB 940). Thiabendazole was tested in a range from 0,8 µM to 50 µM final concentration.
Analogously, thiabendazole (A; Sigma) and various derivatives thereof (2-(1,3-thiazol-5-yl)-benzimidazole (B; ChemBridge Corporation), 4-(benzimidazol-2-yl)-1,3-thiazol-2-amine (C; ChemBridge Corporation), 2-(2-thienyl)-benzimidazole (D; ChemBridge Corporation), or 2-(1,3-thiazol-4-yl)-benzimidazole-5-ol (E; Witega GmbH), Fig. 8) have been analysed for their effect on the viability of neuronal cells. The compounds were tested in a final concentration of 1 µM and of 10 µM.

SH-SY5Y cells [2] = experiment: In vitro anti-apoptosis assay (Caspase-Glo 3/7) on SH-SY5Y cells with staurosporine; assay type: cell-based, human
From the text: as §1, §2
The human neuroblastoma cell-line SH-SY5Y (American Type Culture Collection) maintained in DMEM with high glucose supplemented with 20% FBS was used for the apoptosis assay. Alternatively one can analyse the apoptosis of primary cortical neurons which can be isolated from E18 rats and subsequently cultivated in suitable culture medium. 2,5 x 10^4 SH-SY5Y cells were seeded in 96-well plates and stimulated 24 h later with thiabendazole or vehicle in the presence of the apoptosis inducing compound staurosporine (0,1 µM, Calbiochem). After 5h incubation at 37 °C, caspase-Glo 3/7 reagent (Promega) containing luciferase and luminogenic substrate was added to the cells. The cleavage of the substrate by caspase-3 and caspase-7 was detected 30 min later using a luminometer (Berthold Technologies, Mithras LB 940). The Luminescence which is proportional to the amount of caspase activity serves as a measure for the apoptosis of the treated neurons. Thiabendazole was tested in a range from 0,8 µM to 100 µM final concentration.
Incubation with staurosporine (SP; 0,5 µM) alone served as positive control and incubation with vehicle (sham) served as negative control.

[3] = compound 1 µM plus staurosporine 0,5 µM, Fig. 6

In the case of `c1ccc2[nH]c(-c3cncs3)nc2c1` [B, 2-(1,3-thiazol-5-yl)-benzimidazole], the “differentiation of neural stem cells to neurons (relative induction of the class III β-tubulin gene promoter controlled luciferase signal)” value (neural stem cells) is reported as “significantly stimulate the differentiation of neural stem cells to neurons”, the “degree of apoptosis relative to the staurosporine control” value (primary cortical neurons; [3]) is reported as 55% and the “degree of apoptosis relative to the staurosporine control” value (SH-SY5Y cells [1]) is reported as 65%.
With `Nc1nc(-c2nc3ccccc3[nH]2)cs1` [C, 4-(benzimidazol-2-yl)-1,3-thiazol-2-amine] the “differentiation of neural stem cells to neurons (relative induction of the class III β-tubulin gene promoter controlled luciferase signal)” value (neural stem cells) was “significantly stimulate the differentiation of neural stem cells to neurons”, the “viability of neuronal cells (Renilla luciferase activity)” value (SH-SY5Y neuronal cells) was “did not show any significantly reduced viability” and the “degree of apoptosis relative to the staurosporine control” value (primary cortical neurons; [3]) was 52%. For the same compound, the “degree of apoptosis relative to the staurosporine control” value (SH-SY5Y cells [1]) was 46%.
With `c1csc(-c2nc3ccccc3[nH]2)c1` [D, 2-(2-thienyl)-benzimidazole] the “differentiation of neural stem cells to neurons (relative induction of the class III β-tubulin gene promoter controlled luciferase signal)” value (neural stem cells) was “significantly stimulate the differentiation of neural stem cells to neurons”, the “degree of apoptosis relative to the staurosporine control” value (primary cortical neurons; [3]) was 49% and the “degree of apoptosis relative to the staurosporine control” value (SH-SY5Y cells [1]) was 65%.
In the case of `Oc1ccc2nc(-c3cscn3)[nH]c2c1` [E, 2-(1,3-thiazol-4-yl)-benzimidazole-5-ol], the “differentiation of neural stem cells to neurons (relative induction of the class III β-tubulin gene promoter controlled luciferase signal)” value (neural stem cells) is reported as “significantly stimulate the differentiation of neural stem cells to neurons”, the “degree of apoptosis relative to the staurosporine control” value (primary cortical neurons; [3]) is reported as 60% and the “degree of apoptosis relative to the staurosporine control” value (SH-SY5Y cells [1]) is reported as 83%.
With `CN[C@@H]1C[C@H]2O[C@@](C)([C@@H]1OC)n1c3ccccc3c3c4c(c5c6ccccc6n2c5c31)C(=O)NC4` [staurosporine] the “staurosporine induced apoptosis (caspase-3 and caspase-7 activity)” value (SH-SY5Y cells [2]; 0,1 µM staurosporine alone (reference, set to 100 %), sham 10 %) was 100%, the “degree of apoptosis relative to the staurosporine control” value (SH-SY5Y cells [2]; SH-SY5Y cells, staurosporine 0,5 µM alone (positive control), sham 26 %) was 100% and the “degree of apoptosis relative to the staurosporine control” value (primary cortical neurons; staurosporine 0,5 µM alone (positive control)) was 100%.
